According to patent US20140357577A1, “HIV Membrane Fusion Inhibitors” (priority 2011, published 2014):
Starred links: 1 amine or outer side, 2 acyl side, 3 side chain; linkers in the order of their positions; H or OH if unused. Non-standard residues stand in square brackets, D forms with d. No end group written: not given here. *: point of attachment. cholesteryl‑oxycarbonylmethyl = CC(C)CCC[C@@H](C)[C@H]1CC[C@H]2[C@@H]3CC=C4C[C@@H](OC(=O)C*)CC[C@]4(C)[C@H]3CC[C@]12C; C(Bzl) = O=C([C@H](CSCc1ccccc1)N[*:1])[*:2]; Suc = O=C(CCC(=O)[*:2])[*:1]; Isovaleryl = CC(C)CC(=O)*; hCys = N[C@@H](CCS)C(=O)O; Nva = CCC[C@H](N)C(=O)O; Tba = not defined here

What was measured:
[1] = system: HIV wild type virus strain IIIB; assay: Standard Anti-Viral-Experiment (AVE), HIV-1 replication assay in MT4-LTR-EGFP cells, wild type IIIB; type: cell-based; details: 3 days, EGFP signal
Procedure, shortened: (§1)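 MT4-LTR-EGFP cells infected with HIV-1 IIIB, HXB2D or HXB2D gp41 mutants V38A/Q40H alongside serial 4-fold compound dilutions, 3 days at 37° C. EGFP read by laser-scanning microscopy; EC50 by linear interpolation against log concentration. Mutant results given as fold change in EC50 versus wild-type HXB2D.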

[2] = system: HIV-IIIB + 50% HS; assay: Standard AVE (50% Human Serum), HIV-1 replication assay in MT4-LTR-EGFP cells; type: cell-based; details: fold change vs EC50 in the assay without human serum
Procedure, shortened: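 MT4-LTR-EGFP cells infected with HIV-1 alongside 4-fold serial compound dilutions in 50% human serum, 3 days at 37 °C. EGFP read by laser-scanning microscopy; EC50 by linear interpolation against log concentration, reported as fold change versus EC50 without serum.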

[3] = system: HIV mutant virus strain HXB2D with mutation V38A in the gp41 gene; assay: Standard AVE, HXB2D site directed mutant V38A; type: cell-based, HIV-1; details: fold change vs wild type strain HXB2D
Text: • Standard Anti-Viral-Experiment “AVE” (wild type HIV strain IIIB+HIV strain HXB2D side directed mutants V38A and Q40H)
The HIV-1 replication assay measures virus replication (HIV wild type virus strain 111B or HXB2D, or a HIV mutant virus strain HXB2D with mutation V38A or Q40H in the gp41 gene) as an induction of enhanced green fluorescent protein (EGFP) expression. The indicator MT4-LTR-EGFP cells contain an EGFP gene under the control of the HIV-1 LTR promoter sequence. Successful HIV-1 infection results in viral Tat protein expression and subsequent induction of EGFP expression. Compounds/peptides inhibiting HIV-1 infection are expected to reduce EGFP expression as compared to the untreated HIV-infected control.
Serial 4-fold dilutions of test compounds/peptides were mixed with HIV-1 (IIIB, HXB2D, or a HXB2D mutant virus (V38A or Q40H)) and MT4-LTR-EGFP cells and incubated at 37° C. After 3 days, the wells were examined for EGFP expression using an argon laser-scanning microscope. The effective compound/peptide concentration inhibiting 50% of the virus-induced EGFP signal (EC50) was determined by linear interpolation of the EGFP signal vs. logarithm of the compound concentration; (T20, C34 and Sifuvirtide were added as reference compounds). For the V38A and Q40H mutant viruses, results were reported as a fold change in EC50, as compared with a drug-susceptible wild type strain HXB2D, which forms the backbone of the mutant virus. • Standard AVE (50% Human Serum)

[4] = system: HIV mutant virus strain HXB2D with mutation Q40H in the gp41 gene; assay: Standard AVE, HXB2D site directed mutant Q40H; type: cell-based, HIV-1; details: fold change vs wild type strain HXB2D
Procedure, shortened: as §1

Substance | EC50 [1] [nM] | HIV-IIIB + 50% HS (Fold change in EC50) [2] | HIV-HXB2D V38A mutant (fold change in EC50) [3] | HIV-HXB2D Q40H mutant (fold change in EC50) [4]
Ac-A-C(Bzl)-YAALIEALIRAAQEQQEKNEAALR-NH2 ({Ac-Ala-C(Bzl)}-YAALIEALIRAAQEQQEKNEAALR-NH2; SMILES CC[C@H](C)[C@H](NC(=O)[C@H](CC(C)C)NC(=O)[C@H](C)NC(=O)[C@H](CCC(=O)O)NC(=O)[C@@H](NC(=O)[C@H](CC(C)C)NC(=O)[C@H](C)NC(=O)[C@H](C)NC(=O)[C@H](Cc1ccc(O)cc1)NC(=O)[C@H](CSCc1ccccc1)NC(=O)[C@H](C)NC(C)=O)[C@@H](C)CC)C(=O)N[C@@H](CCCNC(=N)N)C(=O)N[C@@H](C)C(=O)N[C@@H](C)C(=O)N[C@@H](CCC(N)=O)C(=O)N[C@@H](CCC(=O)O)C(=O)N[C@@H](CCC(N)=O)C(=O)N[C@@H](CCC(N)=O)C(=O)N[C@@H](CCC(=O)O)C(=O)N[C@@H](CCCCN)C(=O)N[C@@H](CC(N)=O)C(=O)N[C@@H](CCC(=O)O)C(=O)N[C@@H](C)C(=O)N[C@@H](C)C(=O)N[C@@H](CC(C)C)C(=O)N[C@@H](CCCNC(=N)N)C(N)=O) [Peptide 4] | 10 | 2 | 74 | 
Ac-ACY-Cha-ACIEALIRAAQEQQEKNEAALR-NH2 [Peptide 59] | 3 | 3 | 18 | 44
Ac-ACY-Tba-ACIEALIRAAQEQQEKNEAALR-NH2 [Peptide 60] | 5 | 3 | 18 | 
Ac-ACYAACIEALIRAAQEQQEKNEAALRGSGC(cholesteryl-oxycarbonylmethyl)-NH2 [81] (Ac-ACYAACIEALIRAAQEQQEKNEAALRGSGC(cholesteryl‑oxycarbonylmethyl)-NH2; cysteine pairing not given here) [Peptide 81] | 0.3 | 4 | 4 | 24
Ac-ACYAACIEALIRAAQEQQEKNEAALRGSGC(cholesteryl-oxycarbonylmethyl)-NH2 [87] (Ac-ACYAACIEALIRAAQEQQEKNEAALRGSGC(cholesteryl‑oxycarbonylmethyl)-NH2; cysteine pairing not given here) [Peptide 87] | 0.1 | 14 | 1 | 5
Ac-A[hCys]YAA[hCys]IEALIRAAQEQQEKNEAALR-NH2 (cysteine pairing not given here) [Peptide 77] | 6 | 3 | 39 | 304
Ac-A[hCys]YAA[hCys]IEALIRAAQEQQEKNEAALR-NH2 (cysteine pairing not given here) [Peptide 78] | 5 | 3 | 61 | 355
Ac-A[hCys]YAA[hCys]IEALIRKAQEQQEKNEAALR-NH2 (cysteine pairing not given here) [Peptide 79] | 5 | 2 | 27 | 284
Ac-A[hCys]YAA[hCys]IEALIRKAQEQQEKNEAALR-NH2 (cysteine pairing not given here) [Peptide 80] | 2 | 2 | 40 | 375
Isovaleryl-E-C(Bzl)-YLALIEELIRKAQEQQEKNEAALR-NH2 ({Isovaleryl-Glu-C(Bzl)}-YLALIEELIRKAQEQQEKNEAALR-NH2; SMILES CC[C@H](C)[C@H](NC(=O)[C@H](CC(C)C)NC(=O)[C@H](C)NC(=O)[C@H](CC(C)C)NC(=O)[C@H](Cc1ccc(O)cc1)NC(=O)[C@H](CSCc1ccccc1)NC(=O)[C@H](CCC(=O)O)NC(=O)CC(C)C)C(=O)N[C@@H](CCC(=O)O)C(=O)N[C@@H](CCC(=O)O)C(=O)N[C@@H](CC(C)C)C(=O)N[C@H](C(=O)N[C@@H](CCCNC(=N)N)C(=O)N[C@@H](CCCCN)C(=O)N[C@@H](C)C(=O)N[C@@H](CCC(N)=O)C(=O)N[C@@H](CCC(=O)O)C(=O)N[C@@H](CCC(N)=O)C(=O)N[C@@H](CCC(N)=O)C(=O)N[C@@H](CCC(=O)O)C(=O)N[C@@H](CCCCN)C(=O)N[C@@H](CC(N)=O)C(=O)N[C@@H](CCC(=O)O)C(=O)N[C@@H](C)C(=O)N[C@@H](C)C(=O)N[C@@H](CC(C)C)C(=O)N[C@@H](CCCNC(=N)N)C(N)=O)[C@@H](C)CC) [Peptide 18] | 1 | 3 | 3 | 53
Suc-ACY-Abu-ACIEALIRAAQEQQEKNEAALR-NH2 [Peptide 49] | 6 | 0.6 | 33 | 
Suc-ACY-Nva-ACIEALIRAAQEQQEKNEAALR-NH2 [Peptide 44] | 2 | 1 | 15 | 160
Suc-ACYLAC)EELIRKAQEQQEKNEAALR-NH2 [Peptide 31] | 1 | 0.4 | 14 | 238
Suc-ACYLACIEALIRA-Abu-QEQQEKNEAALR-NH2 [Peptide 47] | 1 | 2 | 17 | 261
Suc-ACYLACIEALIRA[Nva]QEQQEKNEAALR-NH2 (cysteine pairing not given here) [Peptide 46] | 1 | 2 | 6 | 42
Suc-ANYLALIEAL-Tba-RAAQEQQEKNEAALR-NH2 (reading uncertain; also: chains 1 and 2 are one peptide joined through Tba residue, printed as Suc-ANYLALIEAL-Tba-RAAQEQQEKNEAALR-NH2) [Peptide 11] | 1 | 0.8 | 26 | 368
